The target of data set [1] is T1, human DNMT1 (hDNMT1) (Homo sapiens, UniProt P26358).
T1 construct: His; made in house
Description: DNMT1 assay (radioactive Flashplate methylation assay). The format is biochemical. The conditions noted are these: for inhibition at 100 µM: 100 µM compound, read-out: % inhibition ± SD hDNMT1. The method, then:
His-DNMT1 (182 kDa, human) was cloned, expressed and purified as described by Lee et al.. The DNMT1 assay was performed according to Gros et al.. Briefly, the reaction was started by addition of 90 nM of DNMT1 on a mix containing the tested compound (up to 1% DMSO), 1 µM of a AdoMet/[methyl-^3H]-AdoMet mix in a ratio of 3-to-1 (isotopic dilution 1*:3) and 0.3 µM of biotinylated DNA duplex in 10 µL final volume. The reaction was incubated at 37°C for 2 h in reaction buffer (20 mM HEPES pH 7.2, 1 mM EDTA, 50 mM KCl, 25 µg/mL BSA). 8 µL are then transferred into a streptavidin-coated Flashplate PLUS (PerkinElmer) containing 190 µL of 20 µM AdoHcy (Sigma-Aldrich) in 50 mM Tris-HCl pH 7.4. The Flashplate was agitated at room temperature for 1 h, washed three times with 200 µL of 0.05% Tween-20 in 50 mM Tris-HCl pH 7.4 and read in 200 µL of 50 mM Tris-HCl pH 7.4 on TopCount NXT (PerkinElmer). Percentages of inhibition were calculated with the same formula as in DNMT3A assay.

For data set [2], the target named is T2, Human G9a (Homo sapiens, UniProt Q96KQ7).
T2 sequence (Q96KQ7 786-1210 limits assumed): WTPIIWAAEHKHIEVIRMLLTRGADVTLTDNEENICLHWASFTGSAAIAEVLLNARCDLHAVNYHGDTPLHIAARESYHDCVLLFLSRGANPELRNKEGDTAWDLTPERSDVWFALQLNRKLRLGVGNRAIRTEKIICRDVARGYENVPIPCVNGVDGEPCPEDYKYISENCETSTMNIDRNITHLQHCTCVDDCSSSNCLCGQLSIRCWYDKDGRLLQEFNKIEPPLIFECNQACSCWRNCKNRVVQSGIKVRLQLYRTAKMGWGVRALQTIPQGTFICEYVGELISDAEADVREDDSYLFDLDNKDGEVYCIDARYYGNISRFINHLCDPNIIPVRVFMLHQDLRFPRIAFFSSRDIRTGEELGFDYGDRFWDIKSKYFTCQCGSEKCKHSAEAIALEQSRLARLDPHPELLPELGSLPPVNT
Nature of the data set: G9a assay (3H-AdoMet filter-binding). The format is biochemical. Conditions: for IC50: 10-dose IC50 mode, 2-fold serial dilution starting at 400 µM. The procedure: The reaction buffer was 50 mM Tris-HCl, pH 8.5, 50 mM NaCl, 5 mM MgCl2, 1 mM dithiothreitol (DTT), 1 mM PMSF, and 1% DMSO. Standard substrate concentrations were 5 µM biotinylated H3 (1–21) peptide (AnaSpec) substrate and 0.1 mM AdoMet. For control compound IC50 determinations, the test compounds were diluted in DMSO and then added to the enzyme/substrate mixture in nanoliter amounts by using an acoustic technology (Echo 500; Lab-cyte). The reaction was initiated by the addition of ^3H-AdoMet, and incubated at 30°C for 1 h. The reaction was detected by a filter-binding method. Data analysis was performed using Graph Pad Prism software for curve fits, and GraFit (Erithacus) for global fit of kinetic studies.

The subject of data set [3] is CMV-luc construct in KG-1 cells. Nature of the data set: CMV-luc assay (luciferase re-expression from methylated CMV promoter). The format is cell-based. Conditions: 24 h.

The structures appear in SMILES notation.

The record followed here is article PMC4014597 (PLoS ONE, 2014).

T1 sequence (P26358 whole entry): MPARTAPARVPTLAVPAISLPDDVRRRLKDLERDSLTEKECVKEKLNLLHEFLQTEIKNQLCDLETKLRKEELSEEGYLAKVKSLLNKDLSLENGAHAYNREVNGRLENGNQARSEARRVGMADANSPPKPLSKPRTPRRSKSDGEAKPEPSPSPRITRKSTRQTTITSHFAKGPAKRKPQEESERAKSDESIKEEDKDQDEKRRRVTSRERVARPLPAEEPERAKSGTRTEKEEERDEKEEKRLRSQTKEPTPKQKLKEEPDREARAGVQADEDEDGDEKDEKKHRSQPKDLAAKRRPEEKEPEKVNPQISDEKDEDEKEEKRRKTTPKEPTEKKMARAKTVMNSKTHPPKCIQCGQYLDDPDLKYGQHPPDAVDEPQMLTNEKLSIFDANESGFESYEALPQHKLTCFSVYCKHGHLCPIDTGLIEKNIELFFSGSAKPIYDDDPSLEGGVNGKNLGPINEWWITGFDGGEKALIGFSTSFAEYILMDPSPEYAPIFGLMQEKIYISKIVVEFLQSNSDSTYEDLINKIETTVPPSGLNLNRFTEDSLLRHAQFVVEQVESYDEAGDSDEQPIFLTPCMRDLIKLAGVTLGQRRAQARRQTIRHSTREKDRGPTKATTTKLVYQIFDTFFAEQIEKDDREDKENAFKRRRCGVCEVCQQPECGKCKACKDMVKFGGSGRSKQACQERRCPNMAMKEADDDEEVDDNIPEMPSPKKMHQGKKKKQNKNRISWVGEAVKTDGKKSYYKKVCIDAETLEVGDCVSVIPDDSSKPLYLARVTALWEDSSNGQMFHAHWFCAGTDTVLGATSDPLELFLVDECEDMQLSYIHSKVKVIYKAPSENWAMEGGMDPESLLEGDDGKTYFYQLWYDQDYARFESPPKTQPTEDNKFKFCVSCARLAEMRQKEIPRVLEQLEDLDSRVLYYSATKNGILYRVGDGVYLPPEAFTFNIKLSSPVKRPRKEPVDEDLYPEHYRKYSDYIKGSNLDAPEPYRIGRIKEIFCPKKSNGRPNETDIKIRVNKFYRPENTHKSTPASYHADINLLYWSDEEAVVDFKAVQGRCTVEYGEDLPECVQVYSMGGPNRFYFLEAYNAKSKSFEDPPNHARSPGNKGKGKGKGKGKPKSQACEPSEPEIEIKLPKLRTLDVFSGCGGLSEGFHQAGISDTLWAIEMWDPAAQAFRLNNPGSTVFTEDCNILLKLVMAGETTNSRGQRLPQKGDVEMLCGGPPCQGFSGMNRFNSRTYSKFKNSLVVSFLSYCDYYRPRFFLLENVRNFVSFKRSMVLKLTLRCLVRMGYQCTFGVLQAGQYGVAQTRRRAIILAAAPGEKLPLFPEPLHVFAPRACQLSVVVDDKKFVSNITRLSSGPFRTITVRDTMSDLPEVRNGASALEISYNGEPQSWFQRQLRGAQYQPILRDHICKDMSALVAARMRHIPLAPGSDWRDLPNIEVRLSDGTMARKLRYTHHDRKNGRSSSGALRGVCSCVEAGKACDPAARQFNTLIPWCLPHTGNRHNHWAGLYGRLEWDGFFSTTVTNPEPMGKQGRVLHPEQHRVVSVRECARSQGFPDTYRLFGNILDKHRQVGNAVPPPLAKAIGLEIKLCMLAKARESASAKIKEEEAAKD

What is called inhibition is the change of the read-out against control, counted positive when it falls. As a reminder, the IC50 is the point on the concentration scale where inhibition reaches its midpoint. Low readings indicate greater potency, high ones weaker potency. On to `CN1CCCN(c2nc(NC3CCN(Cc4ccccc4)CC3)c3ccccc3n2)CC1` [Compound 4], for which, in data set [1], the inhibition at 100 µM was 0%. In data set [2], this molecule displayed an inhibition at 0.78 µM of 0%, an inhibition at 1.56 µM of 0%, an inhibition at 3.1 µM of 1.9% and an inhibition at 6.2 µM of 0%. In data set [2], this molecule came in with an inhibition at 25 µM of 0%, an inhibition at 50 µM of 7.9%, an inhibition at 100 µM of 21.8% and an inhibition at 200 µM of 16.4%. Moreover, in data set [2], at 400 µM the inhibition was 23.5% and the half-maximal inhibitory concentration (IC50) was > 400 µM. Moreover, the “fold-induction of the luciferase signal (CMV-luc)” value (shortened to “fold-induction”) in data set [3] (10 µM) is 2.8 fold. In addition, the “fold-induction” value in data set [3] (25 µM) was determined as 12.5 fold. Also, the “fold-induction” value in data set [3] (50 µM) was “ineffective”.
As a reminder, the EC50 is the concentration needed to bring the measured effect to its halfway point. As a reminder, the melting point is the temperature of the solid-liquid transition. As to `c1ccc(CN2CCC(Nc3nc(N4CCCC4)nc4ccccc34)CC2)cc1` [Compound 10, N-(1-benzylpiperidin-4-yl)-2-(pyrrolidin-1-yl)quinazolin-4-amine], the melting point lay in the range of 112 to 115 °C. For the same molecule, the inhibition at 10 µM in data set [1] (10 µM compound) was determined as 6.5%. In data set [1] (32 µM compound), the inhibition at 32 µM was found to be 18%. In addition, in data set [1], the inhibition at 100 µM amounted to 47 ± 1.7%. Also, in data set [1] (means of at least three experiments), the EC50 was found to be 144 ± 35 µM. For the same molecule, in data set [2], the inhibition at 0.78 µM was determined as 0.3%, the inhibition at 1.56 µM stood at 13.4%, testing at 3.1 µM gave an inhibition of 14.7% and the inhibition at 6.2 µM is 4.6%. In data set [2], this molecule yielded an inhibition at 12.5 µM of 5.9%, an inhibition at 25 µM of 13%, an inhibition at 50 µM of 18.6% and an inhibition at 100 µM of 20.8%. In data set [2], the inhibition at 200 µM was 49.5%, at 400 µM the inhibition was 37.8% and the IC50 is > 400 µM. For the same molecule, in data set [3] (5 µM), the “fold-induction” value is recorded as 2/3. For the same molecule, the “fold-induction” value in data set [3] (25 µM) was “not effective”.
For `c1ccc(CN2CCC(Nc3nc(N4CCN(c5ccccn5)CC4)nc4ccccc34)CC2)cc1` [Compound 13], the inhibition at 100 µM in data set [1] was 0%. Moreover, in data set [2], the inhibition at 0.78 µM is 9.4%, the inhibition at 1.56 µM was 21.6%, the inhibition at 3.1 µM is 11% and the inhibition at 6.2 µM was found to be 16.7%. In addition, in data set [2], the inhibition at 12.5 µM amounted to 0%, testing at 25 µM gave an inhibition of 11.1%, the inhibition at 50 µM is 27.2% and the inhibition at 100 µM was 24.9%. Also, in data set [2], the inhibition at 200 µM came out at 29.2%, the inhibition at 400 µM was determined as 14% and the half-maximal inhibitory concentration (IC50) was > 400 µM. The “fold-induction” value in data set [3] (5 µM) is on record as 2/3. In addition, the “fold-induction” value in data set [3] (25 µM) is “not effective”.
As for `c1ccc(CN2CCC(Nc3nc(N4CCN(c5ccccc5)CC4)nc4ccccc34)CC2)cc1` [Compound 14, N-(1-benzylpiperidin-4-yl)-2-(4-phenylpiperazin-1-yl)quinazolin-4-amine], in data set [1], the inhibition at 100 µM was found to be 0%. In data set [2], at 0.78 µM the inhibition was 17.3%, at 1.56 µM the inhibition was 13.5%, the inhibition at 3.1 µM is 0% and the inhibition at 6.2 µM is 4.2%. In data set [2], this molecule gave an inhibition at 12.5 µM of 21.3%, an inhibition at 25 µM of 10.6%, an inhibition at 50 µM of 16.5% and an inhibition at 100 µM of 22.4%. For the same molecule, in data set [2], the inhibition at 200 µM turned out to be 23.8%, 400 µM produced 24% inhibition and the half-inhibitory concentration (IC50) is > 400 µM. Besides, the “fold-induction” value in data set [3] (5 µM) is reported as 2/3. Moreover, the “fold-induction” value in data set [3] (25 µM) came out at 7.5 fold. The “fold-induction” value in data set [3] (50 µM) is listed as “ineffective”.
